Calls of active or inactive are those of the source.
Assays:
[1] = biological target: T1, ATP-dependent RNA helicase DHX30 (Homo sapiens, UniProt Q7L2E3)
T1 sequence (Q7L2E3 whole entry): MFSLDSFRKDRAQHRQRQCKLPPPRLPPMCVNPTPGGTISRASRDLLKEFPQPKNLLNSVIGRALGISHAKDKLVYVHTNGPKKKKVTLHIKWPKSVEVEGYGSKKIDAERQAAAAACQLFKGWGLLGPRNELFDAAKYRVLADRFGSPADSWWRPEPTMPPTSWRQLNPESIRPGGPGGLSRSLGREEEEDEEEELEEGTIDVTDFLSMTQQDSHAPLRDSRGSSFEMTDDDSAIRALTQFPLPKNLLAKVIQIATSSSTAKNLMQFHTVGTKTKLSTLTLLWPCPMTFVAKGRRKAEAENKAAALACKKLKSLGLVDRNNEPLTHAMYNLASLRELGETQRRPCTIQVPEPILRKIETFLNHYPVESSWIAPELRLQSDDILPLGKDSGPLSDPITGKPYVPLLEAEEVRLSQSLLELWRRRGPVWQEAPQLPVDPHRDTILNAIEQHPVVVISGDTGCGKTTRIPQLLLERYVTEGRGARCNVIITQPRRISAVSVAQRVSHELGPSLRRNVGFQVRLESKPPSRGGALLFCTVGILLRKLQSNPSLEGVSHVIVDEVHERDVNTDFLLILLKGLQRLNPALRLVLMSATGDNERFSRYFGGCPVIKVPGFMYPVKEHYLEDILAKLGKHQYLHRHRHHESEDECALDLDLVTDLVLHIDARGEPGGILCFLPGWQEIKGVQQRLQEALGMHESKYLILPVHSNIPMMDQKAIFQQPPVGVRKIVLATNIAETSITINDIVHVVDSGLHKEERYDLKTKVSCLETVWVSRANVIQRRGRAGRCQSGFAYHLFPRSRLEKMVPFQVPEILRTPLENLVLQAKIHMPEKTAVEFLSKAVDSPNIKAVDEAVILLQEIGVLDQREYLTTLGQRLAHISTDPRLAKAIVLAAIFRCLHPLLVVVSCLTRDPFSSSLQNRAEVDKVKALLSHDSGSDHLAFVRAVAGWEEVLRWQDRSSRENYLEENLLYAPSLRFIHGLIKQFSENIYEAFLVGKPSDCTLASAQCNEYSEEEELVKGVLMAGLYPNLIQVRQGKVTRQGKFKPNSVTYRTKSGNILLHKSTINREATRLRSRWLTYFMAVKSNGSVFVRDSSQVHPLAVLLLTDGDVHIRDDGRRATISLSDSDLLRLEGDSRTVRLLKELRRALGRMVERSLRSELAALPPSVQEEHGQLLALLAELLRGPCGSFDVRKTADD

[2] = biological target: T2, Ephrin type-A receptor 1 (Homo sapiens, UniProt P21709)
T2 sequence (P21709 whole entry): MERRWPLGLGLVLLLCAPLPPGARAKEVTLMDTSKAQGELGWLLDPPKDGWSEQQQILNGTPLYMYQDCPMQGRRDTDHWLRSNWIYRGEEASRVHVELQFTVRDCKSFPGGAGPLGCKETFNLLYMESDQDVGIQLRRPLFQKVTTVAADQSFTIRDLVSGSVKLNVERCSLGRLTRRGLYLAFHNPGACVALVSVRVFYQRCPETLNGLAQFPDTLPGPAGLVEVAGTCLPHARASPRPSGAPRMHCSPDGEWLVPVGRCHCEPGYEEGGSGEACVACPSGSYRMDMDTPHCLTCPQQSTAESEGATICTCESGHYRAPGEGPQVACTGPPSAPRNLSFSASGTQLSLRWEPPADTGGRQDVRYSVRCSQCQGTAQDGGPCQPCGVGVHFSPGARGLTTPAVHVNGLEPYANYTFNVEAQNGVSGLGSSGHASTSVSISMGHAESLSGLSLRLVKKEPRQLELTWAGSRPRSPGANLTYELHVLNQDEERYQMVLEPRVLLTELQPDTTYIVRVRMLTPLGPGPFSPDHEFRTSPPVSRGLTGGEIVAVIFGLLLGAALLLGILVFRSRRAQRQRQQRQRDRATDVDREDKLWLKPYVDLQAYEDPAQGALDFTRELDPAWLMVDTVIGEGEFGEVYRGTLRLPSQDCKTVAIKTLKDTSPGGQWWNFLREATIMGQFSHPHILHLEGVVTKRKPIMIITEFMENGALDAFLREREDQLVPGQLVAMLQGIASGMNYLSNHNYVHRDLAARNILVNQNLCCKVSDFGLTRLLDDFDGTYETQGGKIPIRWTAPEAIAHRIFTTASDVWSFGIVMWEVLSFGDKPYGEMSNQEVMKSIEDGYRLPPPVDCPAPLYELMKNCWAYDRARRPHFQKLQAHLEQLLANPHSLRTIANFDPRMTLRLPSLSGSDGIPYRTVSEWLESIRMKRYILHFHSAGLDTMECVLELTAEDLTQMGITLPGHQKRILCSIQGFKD

[3] = biological target: Phosphatidylethanolamine-binding protein 1 (Homo sapiens, UniProt P30086)
[4] = biological target: PAS domain-containing serine/threonine-protein kinase (Homo sapiens, UniProt Q96RG2)
[5] = biological target: T3, Long-chain-fatty-acid--CoA ligase 5 (Homo sapiens, UniProt Q9ULC5)
T3 sequence (Q9ULC5 whole entry): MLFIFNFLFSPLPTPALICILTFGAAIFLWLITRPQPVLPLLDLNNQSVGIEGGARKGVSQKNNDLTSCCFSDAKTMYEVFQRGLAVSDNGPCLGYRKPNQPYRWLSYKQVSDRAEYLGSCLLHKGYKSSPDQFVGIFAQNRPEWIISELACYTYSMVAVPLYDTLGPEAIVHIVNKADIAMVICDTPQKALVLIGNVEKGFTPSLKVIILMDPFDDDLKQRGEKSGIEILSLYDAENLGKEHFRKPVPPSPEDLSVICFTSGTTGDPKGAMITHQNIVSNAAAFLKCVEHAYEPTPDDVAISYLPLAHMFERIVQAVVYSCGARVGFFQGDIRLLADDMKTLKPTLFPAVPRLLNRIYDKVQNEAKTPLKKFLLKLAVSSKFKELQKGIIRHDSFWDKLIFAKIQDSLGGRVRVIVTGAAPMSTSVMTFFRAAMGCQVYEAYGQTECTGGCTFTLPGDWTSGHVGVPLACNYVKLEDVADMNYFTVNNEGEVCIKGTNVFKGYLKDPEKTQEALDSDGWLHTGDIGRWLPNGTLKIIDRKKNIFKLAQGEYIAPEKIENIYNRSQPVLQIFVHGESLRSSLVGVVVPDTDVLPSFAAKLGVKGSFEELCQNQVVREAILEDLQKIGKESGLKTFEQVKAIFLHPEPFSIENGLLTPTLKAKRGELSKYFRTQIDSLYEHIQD

[6] = biological target: Dual specificity testis-specific protein kinase 2 (Homo sapiens, UniProt Q96S53)
[7] = biological target: G protein-coupled receptor kinase 6 (Homo sapiens, UniProt P43250)
Note: in the data inactive means no Kd found up to 30 µM.

Sequence of Dual specificity testis-specific protein kinase 2 (Q96S53 whole entry): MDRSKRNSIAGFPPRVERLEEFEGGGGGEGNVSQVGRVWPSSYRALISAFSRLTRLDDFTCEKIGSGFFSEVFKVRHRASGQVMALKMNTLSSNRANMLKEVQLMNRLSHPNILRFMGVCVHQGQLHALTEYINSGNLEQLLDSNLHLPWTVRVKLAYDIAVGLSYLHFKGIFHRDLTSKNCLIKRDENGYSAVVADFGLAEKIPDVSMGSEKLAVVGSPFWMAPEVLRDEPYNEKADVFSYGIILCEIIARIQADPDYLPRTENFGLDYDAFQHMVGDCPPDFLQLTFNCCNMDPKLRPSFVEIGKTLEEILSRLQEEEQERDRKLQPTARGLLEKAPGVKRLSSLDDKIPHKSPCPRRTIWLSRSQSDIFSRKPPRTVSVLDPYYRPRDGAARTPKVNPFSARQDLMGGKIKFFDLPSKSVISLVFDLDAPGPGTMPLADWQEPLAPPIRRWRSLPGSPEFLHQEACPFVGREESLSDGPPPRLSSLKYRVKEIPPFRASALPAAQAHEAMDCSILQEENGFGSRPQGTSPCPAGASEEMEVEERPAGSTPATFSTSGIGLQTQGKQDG
Sequence of G protein-coupled receptor kinase 6 (P43250 whole entry): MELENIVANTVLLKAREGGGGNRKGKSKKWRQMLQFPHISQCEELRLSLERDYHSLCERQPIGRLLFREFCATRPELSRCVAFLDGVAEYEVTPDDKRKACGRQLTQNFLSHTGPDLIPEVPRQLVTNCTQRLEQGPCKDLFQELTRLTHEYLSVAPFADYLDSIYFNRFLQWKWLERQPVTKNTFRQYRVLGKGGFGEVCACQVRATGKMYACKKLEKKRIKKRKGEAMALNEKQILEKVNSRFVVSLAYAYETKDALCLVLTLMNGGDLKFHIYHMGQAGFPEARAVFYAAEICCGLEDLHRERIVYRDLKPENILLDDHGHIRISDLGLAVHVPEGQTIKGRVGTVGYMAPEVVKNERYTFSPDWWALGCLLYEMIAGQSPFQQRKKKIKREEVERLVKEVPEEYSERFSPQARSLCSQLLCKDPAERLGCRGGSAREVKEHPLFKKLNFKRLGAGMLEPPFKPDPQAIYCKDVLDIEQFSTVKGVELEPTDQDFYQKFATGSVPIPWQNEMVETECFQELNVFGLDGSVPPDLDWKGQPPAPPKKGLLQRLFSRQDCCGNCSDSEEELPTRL
Sequence of Phosphatidylethanolamine-binding protein 1 (P30086 whole entry, the tested form may be a part): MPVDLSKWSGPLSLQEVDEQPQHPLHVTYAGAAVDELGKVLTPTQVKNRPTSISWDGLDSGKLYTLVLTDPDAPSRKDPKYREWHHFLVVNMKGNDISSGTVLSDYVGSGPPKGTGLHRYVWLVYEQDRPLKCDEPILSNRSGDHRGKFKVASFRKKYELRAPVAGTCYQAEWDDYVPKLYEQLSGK
Sequence of PAS domain-containing serine/threonine-protein kinase (Q96RG2 whole entry, the tested form may be a part): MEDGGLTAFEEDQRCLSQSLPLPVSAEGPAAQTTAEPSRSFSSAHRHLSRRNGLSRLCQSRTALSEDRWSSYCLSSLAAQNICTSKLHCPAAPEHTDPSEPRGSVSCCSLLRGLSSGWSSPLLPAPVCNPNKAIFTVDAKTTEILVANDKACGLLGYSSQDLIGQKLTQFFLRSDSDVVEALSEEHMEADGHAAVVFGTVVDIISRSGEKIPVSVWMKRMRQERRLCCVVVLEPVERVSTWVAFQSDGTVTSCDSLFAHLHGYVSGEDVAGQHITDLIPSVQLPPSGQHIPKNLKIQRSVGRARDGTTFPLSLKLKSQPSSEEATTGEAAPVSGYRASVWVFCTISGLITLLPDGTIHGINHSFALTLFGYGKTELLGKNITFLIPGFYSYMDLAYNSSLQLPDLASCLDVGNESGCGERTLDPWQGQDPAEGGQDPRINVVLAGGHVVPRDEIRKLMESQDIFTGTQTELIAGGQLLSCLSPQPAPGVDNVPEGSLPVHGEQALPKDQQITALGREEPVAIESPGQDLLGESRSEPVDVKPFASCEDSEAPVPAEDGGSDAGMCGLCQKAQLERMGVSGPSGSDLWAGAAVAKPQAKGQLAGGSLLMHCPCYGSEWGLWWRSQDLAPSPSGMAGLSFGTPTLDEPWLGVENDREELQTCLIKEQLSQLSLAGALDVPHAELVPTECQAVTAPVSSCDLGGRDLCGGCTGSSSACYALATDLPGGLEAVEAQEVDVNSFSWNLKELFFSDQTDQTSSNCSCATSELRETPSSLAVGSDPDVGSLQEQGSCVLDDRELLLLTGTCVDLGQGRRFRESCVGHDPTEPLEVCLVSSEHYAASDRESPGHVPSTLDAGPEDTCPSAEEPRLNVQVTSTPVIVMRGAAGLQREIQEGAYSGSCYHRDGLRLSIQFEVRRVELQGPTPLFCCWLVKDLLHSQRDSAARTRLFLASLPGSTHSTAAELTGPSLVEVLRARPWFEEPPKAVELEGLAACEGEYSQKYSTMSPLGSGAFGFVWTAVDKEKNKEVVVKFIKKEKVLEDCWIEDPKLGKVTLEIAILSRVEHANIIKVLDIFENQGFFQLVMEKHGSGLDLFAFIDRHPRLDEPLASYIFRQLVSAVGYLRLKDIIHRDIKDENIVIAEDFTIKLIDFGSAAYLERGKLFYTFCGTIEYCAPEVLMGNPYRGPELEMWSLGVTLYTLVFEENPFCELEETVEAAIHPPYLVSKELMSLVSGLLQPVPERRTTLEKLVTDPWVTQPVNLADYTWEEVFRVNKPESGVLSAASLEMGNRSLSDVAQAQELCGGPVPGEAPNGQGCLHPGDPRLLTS

Structure (SMILES)	Kd [1]	Kd [2]	Kd [3]	Kd [4]	Kd [5]	Kd [6]	Kd [7]
Cn1ncc(Cl)c1-c1cc(C(=O)N[C@H](CN)Cc2cccc(F)c2)sc1Cl [AFURESERTIB]	> 30 µM (inactive)	> 30 µM (inactive)	> 30 µM (inactive)	–	–	–	–
O=C(O)[C@]1(Cc2cccc(Nc3nccs3)n2)CC[C@@H](Oc2cccc(Cl)c2F)CC1 [MK-5108]	> 30 µM (inactive)	–	–	> 30 µM (inactive)	–	–	–
CC(C)Nc1cc(-c2c[nH]c(C(=O)N[C@H](CO)c3cccc(Cl)c3)c2)c(Cl)cn1 [ULIXERTINIB]	–	> 30 µM (inactive)	–	> 30 µM (inactive)	> 30 µM (inactive)	> 30 µM (inactive)	–
COc1cc2nccc(Oc3ccc(NC(=O)NC4CC4)c(Cl)c3)c2cc1C(N)=O [LENVATINIB]	–	> 30 µM (inactive)	> 30 µM (inactive)	> 30 µM (inactive)	> 30 µM (inactive)	–	> 30 µM (inactive)
Cc1ccc(-n2nc(C(C)(C)C)cc2NC(=O)NCc2cc(F)ccc2Oc2ccc3c(cnn3CCO)c2)cc1 [PEXMETINIB]	> 30 µM (inactive)	2.64 µM (active)	> 30 µM (inactive)	> 30 µM (inactive)	> 30 µM (inactive)	–	> 30 µM (inactive)
OCCn1cc(-c2cnc3nnn(Cc4ccc5ncccc5c4)c3n2)cn1 [PF-04217903]	> 30 µM (inactive)	> 30 µM (inactive)	> 30 µM (inactive)	> 30 µM (inactive)	> 30 µM (inactive)	–	–
O=C(Nc1ccc(-c2ccnc(Nc3ccc(N4CCOCC4)cc3)n2)cc1)C1CCCN1 (stereo not drawn) [XL-019]	> 30 µM (inactive)	> 30 µM (inactive)	> 30 µM (inactive)	> 30 µM (inactive)	> 30 µM (inactive)	–	–
CCn1c(=O)c(-c2cc[nH]n2)cc2c(C)nc(N)nc21 [VOXTALISIB]	–	> 30 µM (inactive)	> 30 µM (inactive)	–	–	–	–
N[C@@H]1CCCN(c2c(/C=C3\SC(=O)NC3=O)cccc2-c2ccccc2)C1	> 30 µM (inactive)	–	> 30 µM (inactive)	–	–	–	–
COc1cc(CCc2cc(NC(=O)c3ccc(N4C[C@@H](C)N[C@@H](C)C4)cc3)n[nH]2)cc(OC)c1 [AZD-4547]	> 30 µM (inactive)	> 30 µM (inactive)	–	> 30 µM (inactive)	> 30 µM (inactive)	–	> 30 µM (inactive)
CNC(=O)c1ccc(C)c(-n2c(C)cc(OCc3ccc(F)cc3F)c(Br)c2=O)c1 [PH-797804]	> 30 µM (inactive)	> 30 µM (inactive)	> 30 µM (inactive)	> 30 µM (inactive)	> 30 µM (inactive)	–	–
CCN1CCN(Cc2ccc(-c3cc4c(N[C@H](C)c5ccccc5)ncnc4[nH]3)cc2)CC1 [AEE-788]	> 30 µM (inactive)	> 30 µM (inactive)	> 30 µM (inactive)	> 30 µM (inactive)	> 30 µM (inactive)	–	> 30 µM (inactive)
CN1CC[C@@H](c2c(O)cc(O)c3c(=O)cc(-c4ccccc4Cl)oc23)[C@@H]1CO	> 30 µM (inactive)	> 30 µM (inactive)	> 30 µM (inactive)	> 30 µM (inactive)	> 30 µM (inactive)	–	> 30 µM (inactive)
CCn1c(-c2nonc2N)nc2c(C#CC(C)(C)O)ncc(OC[C@H]3CCCNC3)c21 [GSK-690693]	–	–	> 30 µM (inactive)	1.07 µM	> 30 µM (inactive)	–	–
O=C(Nc1cccc(Cl)c1)Nc1ncc(CCNc2ncnc3ccsc23)s1 [SNS-314]	> 30 µM (inactive)	> 30 µM (inactive)	> 30 µM (inactive)	–	> 30 µM (inactive)	–	> 30 µM (inactive)
C1=C/COCc2cc(ccc2OCCN2CCCC2)Nc2nccc(n2)-c2cccc(c2)COC/1 [PACRITINIB]	–	–	> 30 µM (inactive)	> 30 µM (inactive)	–	–	–
CNC(=O)c1ccc(-c2cnc3ncc(Cc4ccc5ncccc5c4)n3n2)cc1F [CAPMATINIB]	> 30 µM (inactive)	> 30 µM (inactive)	> 30 µM (inactive)	–	–	–	–
CN1N=C(N)c2cn([C@@H]3O[C@H](COP(=O)(O)O)[C@@H](O)[C@H]3O)c3ncnc1c23 [TRICIRIBINE PHOSPHATE]	> 30 µM (inactive)	> 30 µM (inactive)	> 30 µM (inactive)	–	–	–	> 30 µM (inactive)
CCS(=O)(=O)N1CC(CC#N)(n2cc(-c3ncnc4[nH]ccc34)cn2)C1 [BARICITINIB]	> 30 µM (inactive)	> 30 µM (inactive)	> 30 µM (inactive)	> 30 µM (inactive)	> 30 µM (inactive)	–	> 30 µM (inactive)
Cc1nc(N)sc1-c1ccnc(Nc2ccc(N3CCOCC3)cc2)n1 [CYC-116]	–	–	> 30 µM (inactive)	> 30 µM (inactive)	–	> 30 µM (inactive)	–
COc1cc(N2CCC(N3CCN(C)CC3)CC2)ccc1Nc1ncnc(Nc2ccccc2S(=O)(=O)C(C)C)n1 [ASP-3026]	–	–	> 30 µM (inactive)	–	–	–	> 30 µM (inactive)
O=c1sn(-c2cccc3ccccc23)c(=O)n1Cc1ccccc1 [TIDEGLUSIB]	–	> 30 µM (inactive)	–	> 30 µM (inactive)	> 30 µM (inactive)	–	> 30 µM (inactive)
CNS(=O)(=O)Nc1nccc(Cc2c(C)c3ccc(Oc4ncccn4)cc3oc2=O)c1F [AVUTOMETINIB]	> 30 µM (inactive)	–	> 30 µM (inactive)	> 30 µM (inactive)	–	> 30 µM (inactive)	–
C[C@@H](Nc1cc(F)cc(F)c1)c1cc(C(=O)N(C)C)cc2c(=O)cc(N3CCOCC3)oc12 [AZD-8186]	–	> 30 µM (inactive)	–	–	> 30 µM (inactive)	–	–
Cc1ccc(S(=O)(=O)Nc2nc3ccccc3nc2Nc2ccc3nsnc3c2)cc1	> 30 µM (inactive)	> 30 µM (inactive)	–	> 30 µM (inactive)	> 30 µM (inactive)	–	–
